# Data reported in ChEMBL document CHEMBL1134023, “The discovery of RFI-641 as a potent and selective inhibitor of the respiratory syncytial virus” (Bioorg Med Chem Lett, 2001).
# Key:
# [1] = Inhibitory concentration required against HSV-1 (Herpes simplex virus) by using HSV-1 in ELISA assay; assay type: functional
# Human betaherpesvirus 5 = assay: Inhibitory concentration required against HCMV (Human cytomegalovirus) by using HCMV AD169 and assay is via an indicator gene in the virus; assay type: functional, organism-based
# Human orthopneumovirus = assay: In vitro inhibitory concentration against HRSV (Human respiratory syncytial virus) by using RSV A2 and the assay is by ELISA; assay type: functional, organism-based
# [2] = test system: Respiratory syncytial virus; assay: In vitro inhibitory activity against respiratory syncytial virus (RSV); assay type: functional, organism-based; settings: human respiratory syncytial virus
SMILES,IC50 [1] [nM],IC50 (Human betaherpesvirus 5) [nM],IC50 (Human orthopneumovirus) [nM],IC50 [2] [nM]
NC(=O)CCN(CCC(N)=O)S(=O)(=O)c1cccc(Nc2nc(Nc3cccc(S(=O)(=O)N(CCC(N)=O)CCC(N)=O)c3)nc(Nc3ccc(/C=C/c4ccc(Nc5nc(Nc6cccc(S(=O)(=O)N(CCC(N)=O)CCC(N)=O)c6)nc(Nc6cccc(S(=O)(=O)N(CCC(N)=O)CCC(N)=O)c6)n5)cc4S(=O)(=O)O)c(S(=O)(=O)O)c3)n2)c1,–,–,–,150
NC(=O)CCNS(=O)(=O)c1cccc(Nc2nc(Nc3cccc(S(=O)(=O)NCCC(N)=O)c3)nc(Nc3ccc(-c4ccc(Nc5nc(Nc6cccc(S(=O)(=O)NCCC(N)=O)c6)nc(Nc6cccc(S(=O)(=O)NCCC(N)=O)c6)n5)cc4S(=O)(=O)O)c(S(=O)(=O)O)c3)n2)c1,23200,2640,660,–
NC(=O)CNS(=O)(=O)c1cccc(Nc2nc(Nc3cccc(S(=O)(=O)NCC(N)=O)c3)nc(Nc3ccc(-c4ccc(Nc5nc(Nc6cccc(S(=O)(=O)NCC(N)=O)c6)nc(Nc6cccc(S(=O)(=O)NCC(N)=O)c6)n5)cc4S(=O)(=O)O)c(S(=O)(=O)O)c3)n2)c1,> 25000,1370,270,–

# The remaining compounds from weak to strong by IC50 [1], led by results:
IC50 [1] [nM],IC50 (Human betaherpesvirus 5) [nM],IC50 (Human orthopneumovirus) [nM],IC50 [2] [nM],SMILES
19500,13900,80,50,NC(=O)CCN(CCC(N)=O)S(=O)(=O)c1cccc(Nc2nc(Nc3cccc(S(=O)(=O)N(CCC(N)=O)CCC(N)=O)c3)nc(Nc3ccc(-c4ccc(Nc5nc(Nc6cccc(S(=O)(=O)N(CCC(N)=O)CCC(N)=O)c6)nc(Nc6cccc(S(=O)(=O)N(CCC(N)=O)CCC(N)=O)c6)n5)cc4S(=O)(=O)O)c(S(=O)(=O)O)c3)n2)c1
8500,5800,100,–,NC(=O)CCCN(CCCC(N)=O)S(=O)(=O)c1cccc(Nc2nc(Nc3cccc(S(=O)(=O)N(CCCC(N)=O)CCCC(N)=O)c3)nc(Nc3ccc(-c4ccc(Nc5nc(Nc6cccc(S(=O)(=O)N(CCCC(N)=O)CCCC(N)=O)c6)nc(Nc6cccc(S(=O)(=O)N(CCCC(N)=O)CCCC(N)=O)c6)n5)cc4S(=O)(=O)O)c(S(=O)(=O)O)c3)n2)c1
7700,2550,50,–,NC(=O)CN(CC(N)=O)S(=O)(=O)c1cccc(Nc2nc(Nc3cccc(S(=O)(=O)N(CC(N)=O)CC(N)=O)c3)nc(Nc3ccc(-c4ccc(Nc5nc(Nc6cccc(S(=O)(=O)N(CC(N)=O)CC(N)=O)c6)nc(Nc6cccc(S(=O)(=O)N(CC(N)=O)CC(N)=O)c6)n5)cc4S(=O)(=O)O)c(S(=O)(=O)O)c3)n2)c1 [RF-1461]
